Results: patent US8710038B2, “Pyrazole kinase modulators and methods of use” (Exelixis, Inc., priority 2004, dated 2014)

How the values were obtained:
c-Kit = c-Kit (Homo sapiens, UniProt P10721); experiment: c-Kit biochemical assay (AlphaScreen)
Excerpt: (§1) AlphaScreen technology is a proximity assay which utilizes the increase in fluorescent signal occurring when donor and acceptor beads are close in proximity. Biotinylated poly(Glu,Tyr) 4:1 is used as the kinase substrate, in conjunction with streptavidin-coated donor beads and anti-phosphortyrosine antibody PY100-coated acceptor beads. Upon phosphorylation, the peptide substrate can bind to both donor and acceptor beads giving rise to an increase in fluorescence. Compounds, ATP, biotinylated poly(Glu, Tyr) and kinases are mixed in a volume of 20 uL for 1 hr at ambient temperature using Greiner 384-well white clear bottom medium binding plates. Following incubation a 10 uL solution containing […] AlphaScreen beads, 75 mM Hepes, pH 7.4, 300 mM NaCl, 120 mM EDTA, 0.3% BSA and 0.03% Tween-20 is added to each well. After 2-16 hr incubation of the beads, plates are read in a Perkin Elmer AlphaQuest reader. The IC50 values correlates well with those of radiometric assays.
c-Kit biochemical activity was assessed using AlphaScreen™ (Perkin Elmer) technology, described above. Test compounds, ATP, biotinylated poly(Glu, Tyr) and c-Kit kinase were combined in a volume of 20 μL in a 384-well white, medium binding microtiter plate (Greiner). Reaction mixtures were incubated for 1 hr at ambient temperature. Reactions were quenched by addition of 10 uL of […] AlphaScreen bead suspension containing 75 mM Hepes, pH 7.4, 300 mM NaCl, 120 mM EDTA, 0.3% BSA and 0.03% Tween-20. After 16 hr incubation at ambient temperature plates were read using an AlphaQuest reader (Perkin Elmer).

flt-3 = molecular target: T1, flt-3 (Homo sapiens, UniProt P36888); experiment: flt-3 Luciferase-Coupled Chemiluminescent Kinase assay (LCCA); assay type: biochemical
T1 construct: baculovirus expressed human Flt-3 kinase domain R571-S993
T1 sequence (P36888 571-993): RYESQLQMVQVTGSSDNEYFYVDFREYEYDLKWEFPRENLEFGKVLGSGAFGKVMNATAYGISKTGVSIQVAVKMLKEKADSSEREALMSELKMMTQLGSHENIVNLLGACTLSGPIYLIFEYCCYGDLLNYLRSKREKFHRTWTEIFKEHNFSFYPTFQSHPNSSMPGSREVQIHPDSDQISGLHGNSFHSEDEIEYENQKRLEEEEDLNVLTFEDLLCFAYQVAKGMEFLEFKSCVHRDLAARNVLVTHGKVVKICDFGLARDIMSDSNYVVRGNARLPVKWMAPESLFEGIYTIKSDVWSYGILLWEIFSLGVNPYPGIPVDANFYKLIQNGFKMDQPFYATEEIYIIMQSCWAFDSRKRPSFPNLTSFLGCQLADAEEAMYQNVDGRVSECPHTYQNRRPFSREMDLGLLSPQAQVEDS
Protocol: (§2) In the LCCA assays, kinase activity is measured as the percent ATP consumed following the kinase reaction using luciferase-luciferin-coupled chemiluminescence. Greiner 384-well white, clear bottom, medium-binding plates are used for LCCA. Briefly, the kinase reaction is initiated by mixing compounds, ATP and kinase in a 20 uL volume. The mixture is incubated at ambient temperature for 2-4 hrs. At the end of the kinase reaction, a 20 uL luciferase-luciferin mix is added and the chemiluminescent signal is read using a Wallac Victor^2 reader. The luciferase-luciferin mix consists of 50 mM HEPES, pH 7.8, 8.5 ug/mL oxalic acid (pH 7.8), 5 (or 50) mM DTT, 0.4% Triton X-100, 0.25 mg/mL coenzyme A, 63 uM AMP, 28 ug/mL luciferin and 40,000 units of light/mL luciferase. For the LCCA assays, total ATP consumption has been standardized to 25-45% and the IC50 values correlates well with those determined by radiometric assays.
Flt-3 biochemical activity was assessed using a Luciferase-Coupled Chemiluminescent Kinase assay (LCCA) format. Kinase activity was measured as the percent ATP remaining following the kinase reaction. Remaining ATP was detected by luciferase-luciferin-coupled chemiluminescence. Specifically, the reaction was initiated by mixing test compounds, 5 μM ATP, 3 μM poly-EY and 5 nM Flt-3 (baculovirus expressed human Flt-3 kinase domain R571-S993) in a 20 uL assay buffer (20 mM Tris-HCL pH7.5, 10 mM MgCl2, 0.01% Triton X-100, 1 mM DTT, 2 mM MnCl2). The mixture is incubated at ambient temperature for 3 hours after which 20 uL luciferase-luciferin mix is added and the chemiluminescent signal read using a Wallac Victor^2 reader. The luciferase-luciferin mix consists of 50 mM HEPES, pH 7.8, 8.5 ug/mL oxalic acid (pH 7.8), 5 (or 50) mM DTT, 0.4% Triton X-100, 0.25 mg/mL coenzyme A, 63 uM AMP, 28 ug/mL luciferin and 40,000 units of light/mL luciferase.

EphB4 = molecular target: T2, EphB4 (Homo sapiens, UniProt P54760); experiment: EphB4 kinase inhibition assay; assay type: biochemical
T2 sequence (P54760 16-987): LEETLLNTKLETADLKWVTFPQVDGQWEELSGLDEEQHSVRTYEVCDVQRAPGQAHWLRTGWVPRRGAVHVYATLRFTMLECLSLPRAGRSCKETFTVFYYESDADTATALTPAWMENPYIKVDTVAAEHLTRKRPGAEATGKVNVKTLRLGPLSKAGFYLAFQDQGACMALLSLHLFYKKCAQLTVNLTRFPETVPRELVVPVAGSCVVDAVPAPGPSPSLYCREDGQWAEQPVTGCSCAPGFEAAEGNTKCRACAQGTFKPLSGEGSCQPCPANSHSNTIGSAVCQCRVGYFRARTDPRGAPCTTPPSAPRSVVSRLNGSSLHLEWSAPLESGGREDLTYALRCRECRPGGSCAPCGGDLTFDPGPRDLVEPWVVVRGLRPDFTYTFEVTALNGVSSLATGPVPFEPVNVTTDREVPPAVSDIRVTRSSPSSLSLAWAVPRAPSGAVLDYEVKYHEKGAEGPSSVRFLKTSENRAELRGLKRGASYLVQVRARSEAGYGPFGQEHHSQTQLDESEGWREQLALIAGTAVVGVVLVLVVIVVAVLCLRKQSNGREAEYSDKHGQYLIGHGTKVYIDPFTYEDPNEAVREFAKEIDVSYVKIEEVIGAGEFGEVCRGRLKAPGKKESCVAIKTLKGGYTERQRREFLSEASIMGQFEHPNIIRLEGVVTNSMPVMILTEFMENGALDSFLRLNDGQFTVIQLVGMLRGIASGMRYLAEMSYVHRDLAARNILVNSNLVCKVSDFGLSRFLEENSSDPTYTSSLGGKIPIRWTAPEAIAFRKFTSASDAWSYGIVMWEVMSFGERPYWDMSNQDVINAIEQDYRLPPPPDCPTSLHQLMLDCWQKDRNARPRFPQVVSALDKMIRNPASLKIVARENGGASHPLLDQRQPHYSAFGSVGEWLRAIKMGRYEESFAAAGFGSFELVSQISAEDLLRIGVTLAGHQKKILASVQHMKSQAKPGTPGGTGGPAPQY
Protocol: (§3) Kinase activity and compound inhibition are investigated using one or more of the three assay formats described below. The ATP concentrations for each assay are selected to be close to the Michaelis-Menten constant (KM) for each individual kinase. Dose-response experiments are performed at 10 different inhibitor concentrations in a 384-well plate format. The data are fitted to four-parameter equation (2) below; where Y is the observed signal, X is the inhibitor concentration, Min is the background signal in the absence of enzyme (0% enzyme activity), Max is the signal in the absence of inhibitor (100% enzyme activity), IC50 is the inhibitor concentration at 50% enzyme inhibition and H represents the empirical Hill's slope to measure the cooperativity. Typically H is close to unity. Y=Min+(Max−Min)/(1+(X/IC50)^H) Equation (2) ^33P Phosphoryl Transfer Assay: […]
(§4) Greiner 384-well white, clear bottom, high binding plates are coated with 2 μg/well of protein or peptide substrate in a 50 μL volume overnight at ambient temperature. The coating buffer typically contains 40 μg/mL substrate, 22.5 mM Na2CO3, 27.5 mM NaHCO3, 150 mM NaCl and 3 mM NaN3. The coating solution is aspirated and the plates are washed once with 50 μL of assay buffer and padded dry. Subsequently compounds and enzymes are mixed with γ^33P-ATP (3.3 μCi/nmol) in a total volume of 20 uL in suitable assay buffers. The mixture is incubated at ambient temperature for 1.5-2.5 hrs and terminated by aspiration using a Molecular Devices EMBLA 96-head plate washer. The plates are subsequently washed 6-12 times with PBST or TBS buffer. Scintillation fluid (50 μl/well) is then added, the plates are sealed and activity assessed by liquid scintillation spectrometry using a Perkin Elmer MicroBeta TriLux.
as §2, §1

EGFR = EGFR (Homo sapiens, UniProt P00533); experiment: EGFR kinase inhibition assay; assay type: biochemical
Protocol: as §3, §4, §2, §1

EGFR, sequence (P00533 25-1210, species assumed): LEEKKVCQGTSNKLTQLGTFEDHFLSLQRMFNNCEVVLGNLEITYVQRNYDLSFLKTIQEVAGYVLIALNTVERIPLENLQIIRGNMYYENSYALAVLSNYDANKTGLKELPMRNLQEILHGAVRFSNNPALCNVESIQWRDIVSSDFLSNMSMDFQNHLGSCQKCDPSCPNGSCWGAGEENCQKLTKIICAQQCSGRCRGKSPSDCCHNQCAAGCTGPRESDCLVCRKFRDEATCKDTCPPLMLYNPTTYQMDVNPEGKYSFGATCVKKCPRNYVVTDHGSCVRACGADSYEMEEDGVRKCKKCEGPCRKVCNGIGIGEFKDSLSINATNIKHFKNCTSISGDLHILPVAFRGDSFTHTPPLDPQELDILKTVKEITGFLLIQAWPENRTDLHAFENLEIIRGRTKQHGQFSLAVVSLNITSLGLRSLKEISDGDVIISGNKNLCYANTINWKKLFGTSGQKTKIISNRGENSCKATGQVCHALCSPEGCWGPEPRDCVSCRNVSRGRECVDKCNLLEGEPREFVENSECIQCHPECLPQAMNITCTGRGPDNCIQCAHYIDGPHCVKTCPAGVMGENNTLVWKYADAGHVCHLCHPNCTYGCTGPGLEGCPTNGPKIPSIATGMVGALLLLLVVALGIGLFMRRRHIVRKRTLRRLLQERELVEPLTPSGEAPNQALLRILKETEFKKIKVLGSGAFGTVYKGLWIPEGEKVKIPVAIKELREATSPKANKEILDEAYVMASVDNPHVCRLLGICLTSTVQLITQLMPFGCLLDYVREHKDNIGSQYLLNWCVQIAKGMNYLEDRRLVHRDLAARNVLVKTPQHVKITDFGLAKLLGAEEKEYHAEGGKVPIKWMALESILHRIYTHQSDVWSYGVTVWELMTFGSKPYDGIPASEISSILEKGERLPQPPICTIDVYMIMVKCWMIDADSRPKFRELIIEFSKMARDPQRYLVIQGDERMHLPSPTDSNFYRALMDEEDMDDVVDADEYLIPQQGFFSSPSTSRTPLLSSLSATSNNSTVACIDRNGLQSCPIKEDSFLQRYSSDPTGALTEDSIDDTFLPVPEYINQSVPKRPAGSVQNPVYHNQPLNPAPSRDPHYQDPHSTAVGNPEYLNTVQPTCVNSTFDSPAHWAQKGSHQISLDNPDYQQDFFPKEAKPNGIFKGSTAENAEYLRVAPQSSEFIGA
c-Kit, sequence (P10721 26-976): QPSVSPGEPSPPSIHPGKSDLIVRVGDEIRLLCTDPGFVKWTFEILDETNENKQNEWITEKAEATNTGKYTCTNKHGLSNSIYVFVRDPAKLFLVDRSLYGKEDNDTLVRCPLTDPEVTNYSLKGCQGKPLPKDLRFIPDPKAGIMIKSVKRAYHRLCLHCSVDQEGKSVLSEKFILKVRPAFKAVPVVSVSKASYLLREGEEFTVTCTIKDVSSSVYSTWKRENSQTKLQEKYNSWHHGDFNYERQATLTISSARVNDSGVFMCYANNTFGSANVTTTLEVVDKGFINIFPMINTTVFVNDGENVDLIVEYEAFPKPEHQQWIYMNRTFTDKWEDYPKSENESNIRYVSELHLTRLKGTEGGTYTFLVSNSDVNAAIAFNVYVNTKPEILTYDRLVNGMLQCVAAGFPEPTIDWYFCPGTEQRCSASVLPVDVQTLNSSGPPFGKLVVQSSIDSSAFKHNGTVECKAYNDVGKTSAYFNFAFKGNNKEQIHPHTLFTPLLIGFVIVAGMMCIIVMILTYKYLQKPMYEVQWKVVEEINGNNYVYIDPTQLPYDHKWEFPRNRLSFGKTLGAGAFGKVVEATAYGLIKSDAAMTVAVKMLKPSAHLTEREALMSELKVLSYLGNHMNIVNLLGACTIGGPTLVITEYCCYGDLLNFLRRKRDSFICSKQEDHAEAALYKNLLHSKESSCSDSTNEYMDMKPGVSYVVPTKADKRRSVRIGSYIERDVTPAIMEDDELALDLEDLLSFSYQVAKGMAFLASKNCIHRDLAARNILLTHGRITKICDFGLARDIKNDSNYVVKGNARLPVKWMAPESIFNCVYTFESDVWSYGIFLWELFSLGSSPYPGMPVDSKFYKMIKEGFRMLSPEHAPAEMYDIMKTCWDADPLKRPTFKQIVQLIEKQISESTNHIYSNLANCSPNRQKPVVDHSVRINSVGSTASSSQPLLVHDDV

Structure (SMILES) | IC50 (c-Kit) | IC50 (flt-3) | IC50 (EphB4) | IC50 (EGFR)
CN1CCN(c2ccc3nc(-c4cc(/C=C/c5ccc(O)cc5)[nH]n4)[nH]c3c2)CC1 [Entry 1, 4-((E)-2-{3-[6-(4-methylpiperazin-1-yl)-1H-benzimidazol-2-yl]-1H-pyrazol-5-yl}ethenyl)phenol] | < 50 nM | < 50 nM | 500 to 5000 nM | > 5000 nM
CCN1CCN(c2ccc3[nH]c(-c4cc(-c5ccc(NC(=O)Nc6ccc(Cl)c(C(F)(F)F)c6)cc5)[nH]n4)nc3c2)CC1 [Entry 2, N-[4-chloro-3-(trifluoromethyl)phenyl]-N′-(4-{3-[5-(4-ethylpiperazin-1-yl)-1H-benzimidazol-2-yl]-1H-pyrazol-5-yl}phenyl)urea] | < 50 nM | < 50 nM | > 5000 nM | > 5000 nM
CCc1cccc(NC(=O)Nc2ccc(-c3cc(-c4nc5cc(N6CCN(CC)CC6)ccc5[nH]4)n[nH]3)cc2)c1 [Entry 3, N-(3-ethylphenyl)-N′-(4-{3-[5-(4-ethylpiperazin-1-yl)-1H-benzimidazol-2-yl]-1H-pyrazol-5-yl}phenyl)urea] | < 50 nM | < 50 nM | 500 to 5000 nM | > 5000 nM
CCN1CCN(c2ccc3[nH]c(-c4cc(-c5ccc(NC(=O)Nc6cccc(C(F)(F)F)c6)cc5)[nH]n4)nc3c2)CC1 [Entry 4, N-(4-{3-[5-(4-ethylpiperazin-1-yl)-1H-benzimidazol-2-yl]-1H-pyrazol-5-yl}phenyl)-N′-[3-(trifluoromethyl)phenyl]urea] | < 50 nM | < 50 nM | 500 to 5000 nM | > 5000 nM
CC(=O)c1cccc(NC(=O)Nc2ccc(-c3cc(-c4nc5cc(N6CCN(C)CC6)ccc5[nH]4)n[nH]3)cc2)c1 [Entry 5, N-(3-acetylphenyl)-N′-(4-{3-[5-(4-methylpiperazin-1-yl)-1H-benzimidazol-2-yl]-1H-pyrazol-5-yl}phenyl)urea] | < 50 nM | < 50 nM | 500 to 5000 nM | > 5000 nM
CN1CCN(c2ccc3[nH]c(-c4cc(-c5ccc(NC(=O)Nc6ccc(Cl)c(Cl)c6)cc5)[nH]n4)nc3c2)CC1 [Entry 6, N-(3,4-dichlorophenyl)-N′-(4-{3-[5-(4-methylpiperazin-1-yl)-1H-benzimidazol-2-l]-1H-pyrazol-5-yl}phenyl)urea] | < 50 nM | < 50 nM | > 5000 nM | > 5000 nM
CN1CCN(c2ccc3nc(-c4cc(-c5ccc(NC(=O)Nc6cccc(Br)c6)cc5)[nH]n4)[nH]c3c2)CC1 [Entry 7, N-(3-bromophenyl)-N′-(4-{3-[6-(4-methylpiperazin-1-yl)-1H-benzimidazol-2-yl]-1H-pyrazol-5-yl}phenyl)urea] | < 50 nM | < 50 nM | > 5000 nM | > 5000 nM
CN1CCN(c2ccc3[nH]c(-c4cc(-c5ccc(NC(=O)Nc6ccc(F)c(C(F)(F)F)c6)cc5)[nH]n4)nc3c2)CC1 [Entry 8, N-[4-fluoro-3-(trifluoromethyl)phenyl]-N′-(4-{3-[5-(4-methylpiperazin-1-yl)-1H-benzimidazol-2-yl]-1H-pyrazol-5-yl}phenyl)urea] | < 50 nM | < 50 nM | > 5000 nM | > 5000 nM
CN1CCN(c2ccc3[nH]c(-c4cc(-c5ccc(NC(=O)Nc6ccc(Oc7ccccc7)cc6)cc5)[nH]n4)nc3c2)CC1 [Entry 9, N-(4-{3-[5-(4-methylpiperazin-1-yl)-1H-benzimidazol-2-yl]-1H-pyrazol-5-yl}phenyl)-N′-[4-(phenyloxy)phenyl]urea] | < 50 nM | < 50 nM | > 5000 nM | > 5000 nM
CN1CCN(c2ccc3[nH]c(-c4cc(-c5ccc(NC(=O)Nc6cccc(Cl)c6)cc5)[nH]n4)nc3c2)CC1 [Entry 10, N-(3-chlorophenyl)-N′-(4-{3-[5-(4-methylpiperazin-1-yl)-1H-benzimidazol-2-yl]-1H-pyrazol-yl}phenyl)urea] | < 50 nM | < 50 nM | > 5000 nM | 
O=C(Nc1ccccc1)Nc1ccc(-c2cc(-c3nc4ccccc4[nH]3)n[nH]2)cc1 [Entry 33, N-{4-[3-(1H-benzimidazol-2-yl)-1H-pyrazol-5-yl]phenyl}-N′-phenylurea] | < 50 nM |  | > 5000 nM | > 5000 nM
